{"source": "patent US5308869A", "about": "“Substituted amidines having high binding to the sigma receptor and the use thereof” (priority 1992, dated 1994)", "key": {"[1]": {"system": "sigma binding site", "conditions": "cited from earlier work"}, "[2]": {"system": "sigma receptor", "assay": "Sigma receptor binding assay, [^3 H]DTG, guinea pig brain membrane homogenates", "conditions": "guinea pig brain membranes; for Binding to / selectivity at [^3 H]DTG-labelled sigma sites: drug specificity profile; for IC50: read-out: IC50 vs [^3 H]DTG (MEAN), […] [^3 H]DTG, pH 7.4, 90 minutes at room temperature, mean with SEM and n in own columns"}, "[3]": {"system": "sigma sites", "conditions": "rat brain membrane; cited from earlier work"}, "[4]": {"system": "kappa receptors", "conditions": "cited from earlier work"}, "[5]": {"system": "mu receptors", "conditions": "cited from earlier work"}, "[6]": {"conditions": "in vivo; cited from earlier work"}, "[7]": {"system": "D2 class of striatal dopamine receptors", "conditions": "rat striatum; cited from earlier work"}, "[8]": {"system": "histaminergic sites", "conditions": "cited from earlier work"}, "[9]": {"system": "[^3 H]spiperone-labeled D2 site in striatum", "conditions": "chronic administration (20 days) to rats; cited from earlier work"}, "[10]": {"system": "sigma receptor", "conditions": "cited from earlier work"}, "[11]": {"system": "D1 subclass of dopamine receptors", "conditions": "cited from earlier work"}, "[12]": {"system": "dopamine-stimulated CAMP production", "conditions": "in vitro; cited from earlier work"}, "[13]": {"system": "adrenergic sites", "conditions": "cited from earlier work"}, "[14]": {"system": "cholinergic sites", "conditions": "cited from earlier work"}, "[15]": {"system": "muscarinic sites", "conditions": "cited from earlier work"}, "[16]": {"system": "rats", "conditions": "rat, in vivo; cited from earlier work"}, "[17]": {"system": "rhesus monkeys", "conditions": "introduction of foreign objects into cages; cited from earlier work"}, "[18]": {"system": "apomorphine-induced mesolimbic behaviors", "conditions": "without altering intensity of stereotypic behaviors; cited from earlier work"}, "[19]": {"system": "dopamine-stimulated production of CAMP", "conditions": "homogenates of rat striatum and olfactory tubercle; cited from earlier work"}, "[20]": {"conditions": "humans; cited from earlier work"}, "[21]": {"system": "sigma receptor", "conditions": "cited from earlier work", "remark": "listed apart in the source"}, "[22]": {"system": "dopamine synthesis", "conditions": "cited from earlier work"}}}
{"smiles": "C=CCN1CCC2(C)c3cc(O)ccc3CC1C2C", "note": "(single isomer, unassigned; (+)) [(+)SKF-10,047, N-allyl-normetazocine]", "values": [{"measurement": "Drug selectivity profile of sigma binding site", "setting": "[1]", "result": "selectively label a sigma receptor"}, {"measurement": "Binding to / selectivity at [^3 H]DTG-labelled sigma sites", "setting": "[2]", "result": "stereoselectivity for dextrorotatory isomers"}]}
{"smiles": "CCCN1CCCC(c2cccc(O)c2)C1", "note": "(single isomer, unassigned; (+)) [(+)[^3 H]3-PPP, (+)[^3 H]3-(3-hydroxyphenyl)-N-(1-propyl)-piperidine]", "values": [{"measurement": "Selectivity for sigma sites", "setting": "[3]", "result": "selective for sigma sites"}, {"measurement": "Binding to / selectivity at [^3 H]DTG-labelled sigma sites", "setting": "[2]", "result": "virtually identical receptor binding characteristics and drug selectivity profiles"}]}
{"smiles": "CCC12CCN(CC3CC3)C(C(=O)c3ccc(O)cc31)C2C", "note": "(single isomer, unassigned; (+)) [(+)[^3 H]-ethylketazocine]", "values": [{"measurement": "Sigma site selectivity of radioligand", "setting": "[1]", "result": "not selective for the sigma site"}]}
{"smiles": "C=CCN1CCC2(C)c3cc(O)ccc3CC1C2C", "note": "(single isomer, unassigned; (+)) [(+)[^3 H]SKF-10,047]", "values": [{"measurement": "Sigma site selectivity of radioligand", "setting": "[1]", "result": "not selective for the sigma site"}]}
{"smiles": "CC(C)=CCN1CCC2(C)c3cc(O)ccc3CC1C2C", "note": "(single isomer, unassigned; (+)) [(+)pentazocine]", "values": [{"measurement": "Binding to / selectivity at [^3 H]DTG-labelled sigma sites", "setting": "[2]", "result": "stereoselectivity for dextrorotatory isomers"}]}
{"smiles": "C=CCN1CCC2(C)c3cc(O)ccc3CC1C2C", "note": "(single isomer, unassigned; (-)) [(-)-SKF-10,047, N-allyl-normetazocine]", "values": [{"measurement": "Drug selectivity profile of sigma binding site", "setting": "[1]", "result": "not the sigma receptors"}, {"measurement": "Binding to kappa receptors", "setting": "[4]", "result": "labeled the mu and kappa receptors"}, {"measurement": "Binding to mu receptors", "setting": "[5]", "result": "labeled the mu and kappa receptors"}]}
{"smiles": "C[C@@H]1CN(CCCn2c3ccccc3c3ccccc32)C[C@H](C)N1", "note": "[9-[3-(3,5-cis-dimethylpiperazino)-propyl]carbazole]", "values": [{"measurement": "Anxiolytic activity", "setting": "[6]", "result": "anxiolytic activity"}]}
{"smiles": "OC(CCCN1CCN(c2ncc(F)cn2)CC1)c1ccc(F)cc1", "note": "(centres unmarked) [BMY 14802]", "values": [{"measurement": "Inhibition of [^3 H]spiperone binding to D2 receptors", "setting": "[7]", "result": "does not inhibit the binding"}, {"measurement": "Binding to histaminergic sites", "setting": "[8]", "result": "does not bind"}, {"measurement": "Maximal density of [^3 H]spiperone-labeled D2 site in striatum", "setting": "[9]", "result": "did not increase the maximal density"}, {"measurement": "Sigma receptor binding affinity", "setting": "[10]", "result": "relatively high affinity"}, {"measurement": "Potency at inhibiting sigma binding, dextrorotatory vs levorotatory enantiomer", "setting": "[10]; dextrorotatory more potent than levorotatory enantiomer", "result": 10, "unit": "times"}, {"measurement": "Interaction with D1 subclass of dopamine receptors", "setting": "[11]", "result": "does not appear to interact"}, {"measurement": "Inhibition of [^3 H]SCH 23390 binding", "setting": "[11]; in vitro", "result": "does not inhibit"}, {"measurement": "Inhibition of dopamine-stimulated CAMP production", "setting": "[12]", "result": "does not inhibit dopamine-stimulated CAMP production"}, {"measurement": "Binding to adrenergic sites", "setting": "[13]", "result": "does not bind"}, {"measurement": "Binding to cholinergic sites", "setting": "[14]", "result": "does not bind"}, {"measurement": "Binding to muscarinic sites", "setting": "[15]", "result": "does not bind"}, {"measurement": "Catalepsy in rats", "setting": "[16]", "result": "did not cause catalepsy in rats"}]}
{"smiles": "O=C1CC2(CCCC2)CC(=O)N1CCCCN1CCN(c2ncccn2)CC1", "note": "[Buspirone]", "values": [{"measurement": "Efficacy in taming of aggressive response", "setting": "[17]", "result": "efficacy in a predictive animal model"}]}
{"smiles": "CC(=Nc1ccc(Br)cc1C)Nc1ccc(Br)cc1C", "note": "[N,N'-Bis(4-bromo-2-tolyl)acetamidine]", "values": [{"measurement": "IC50", "setting": "[2]", "result": 25.8, "unit": "nM"}]}
{"smiles": "CC(=Nc1cccc2ccccc12)Nc1cccc2ccccc12", "note": "[N,N'-bis(1-naphthyl)acetamidine]", "values": [{"measurement": "IC50", "setting": "[2]", "result": 169, "unit": "nM"}]}
{"smiles": "CC(=Nc1ccccc1C(C)C)Nc1ccccc1C(C)C", "note": "[N,N'-bis(2-isopropylphenyl)acetamidine, N,N'-Bis(2-isopropylphenyl)acetamidine]", "values": [{"measurement": "IC50", "setting": "[2]", "result": 77.4, "unit": "nM"}]}
{"smiles": "CCc1cccc(N=C(C)Nc2cccc(CC)c2)c1", "note": "[N,N'-bis(3-ethylphenyl)acetamidine, N,N'-Bis(3-ethylphenyl)acetamidine]", "values": [{"measurement": "IC50", "setting": "[2]", "result": 13, "unit": "nM"}]}
{"smiles": "CC(=Nc1ccccc1C)Nc1ccccc1C", "note": "[N,N'-bis(-o-tolyl)acetamidine, N,N'-Bis(o-methylphenyl)acetamidine]", "values": [{"measurement": "IC50", "setting": "[2]", "result": 15, "unit": "nM"}]}
{"smiles": "CC(=NC12CC3CC(CC(C3)C1)C2)NC12CC3CC(CC(C3)C1)C2", "note": "[N,N'-bis(adamantan-1-yl)acetamidine, N,N'-Bis(adamantan-1-yl)acetamidine]", "values": [{"measurement": "IC50", "setting": "[2]", "result": 15.7, "unit": "nM"}]}
{"smiles": "CCc1ccccc1N=C(C)Nc1ccccc1CC", "note": "[N,N'-bis-(o-ethylphenyl)acetamidine, N,N'-Bis(2-ethylphenyl)acetamidine]", "values": [{"measurement": "IC50", "setting": "[2]", "result": 36.9, "unit": "nM"}]}
{"smiles": "CC(=Nc1ccccc1C(C)C)Nc1cccc2ccccc12", "note": "[N-(1-naphthyl)-N'-(2-isopropylphenyl)-acetamidine]", "values": [{"measurement": "IC50", "setting": "[2]", "result": 118, "unit": "nM"}]}
{"smiles": "CCc1cccc(N=C(C)Nc2cccc3ccccc23)c1", "note": "[N-(1-naphthyl)-N'-(3-ethylphenyl)-acetamidine]", "values": [{"measurement": "IC50", "setting": "[2]", "result": 123, "unit": "nM"}]}
{"smiles": "CCc1cccc(N=C(C)Nc2cccc3ccccc23)c1", "note": "[N-(1-naphthyl)-N'-(m-ethylphenyl)-acetamidine]", "values": [{"measurement": "IC50", "setting": "[2]", "result": 2410, "unit": "nM"}]}
{"smiles": "CC(=NC1CCCCC1)NC12CC3CC(CC(C3)C1)C2", "note": "[N-(Adamantan-1-yl)-N'-(cyclohexyl)acetamidine]", "values": [{"measurement": "IC50", "setting": "[2]", "result": 71.9, "unit": "nM"}]}
{"smiles": "CC(=Nc1ccccc1C)NC12CC3CC(CC(C3)C1)C2", "note": "[N-(Adamantan-1-yl)-N'-(o-methylphenyl)acetamidine]", "values": [{"measurement": "IC50", "setting": "[2]", "result": 7.27, "unit": "nM"}]}
{"smiles": "CC(=NC1CCCCC1)Nc1ccccc1C", "note": "[N-(o-Methylphenyl)-N'-(cyclohexyl)acetamidine]", "values": [{"measurement": "IC50", "setting": "[2]", "result": 9.01, "unit": "nM"}]}
{"smiles": "CN=C(C)Nc1ccccc1C", "note": "[N-(o-tolyl)-N'-methylacetamidine]", "values": [{"measurement": "IC50", "setting": "[2]", "result": 354, "unit": "nM"}]}
{"smiles": "CC(=Nc1ccccc1C)NC1CC2CCC1C2", "note": "(centres unmarked) [N-Exonorbornyl-N'-(2-methylphenyl)acetamidine]", "values": [{"measurement": "IC50", "setting": "[2]", "result": 9.32, "unit": "nM"}]}
{"smiles": "[3H]c1ccc(NC(=N)Nc2ccc([3H])cc2C)c(C)c1", "note": "[[^3 H]DTG, N,N'-di-(4-[^3 H]-2-methylphenyl)-guanidine]", "values": [{"measurement": "Binding to / selectivity at [^3 H]DTG-labelled sigma sites", "setting": "[2]", "result": "binds specifically and with high affinity to a single class of binding sites"}]}
{"smiles": "CN1CCc2cccc3c2[C@H]1Cc1ccc(O)c(O)c1-3", "note": "[apomorphine]", "values": [{"measurement": "Drug selectivity profile of sigma binding site", "setting": "[1]", "result": "insensitivity"}, {"measurement": "Binding to / selectivity at [^3 H]DTG-labelled sigma sites", "setting": "[2]", "result": "insensitivity"}]}
{"smiles": "NCCc1ccc(O)c(O)c1", "note": "[dopamine]", "values": [{"measurement": "Drug selectivity profile of sigma binding site", "setting": "[1]", "result": "insensitivity"}, {"measurement": "Binding to / selectivity at [^3 H]DTG-labelled sigma sites", "setting": "[2]", "result": "insensitivity"}]}
{"smiles": "O=C(CCCN1CCC(O)(c2ccc(Cl)cc2)CC1)c1ccc(F)cc1", "note": "[haloperidol]", "values": [{"measurement": "Drug selectivity profile of sigma binding site", "setting": "[1]", "result": "high affinity"}, {"measurement": "Binding to / selectivity at [^3 H]DTG-labelled sigma sites", "setting": "[2]", "result": "high affinity"}]}
{"smiles": "C=CCN1CC[C@]23c4c5ccc(O)c4O[C@H]2C(=O)CC[C@@]3(O)[C@H]1C5", "note": "[naloxone]", "values": [{"measurement": "Drug selectivity profile of sigma binding site", "setting": "[1]", "result": "insensitivity"}, {"measurement": "Binding to / selectivity at [^3 H]DTG-labelled sigma sites", "setting": "[2]", "result": "insensitivity"}]}
{"smiles": "C[C@@H]1CN(CCCn2c3ccccc3c3ccccc32)C[C@H](C)N1.Cl.Cl", "note": "[rimcazole, cis-9-[3-(3,5-dimethyl-1-piperazinyl)-propyl]carbazole dihydrochloride]", "values": [{"measurement": "Antagonism of apomorphine-induced mesolimbic behaviors", "setting": "[18]", "result": "antagonize apomorphine-induced mesolimbic behaviors selectively without altering the intensity of stereotypic behaviors"}, {"measurement": "Effect on dopamine-stimulated production of CAMP", "setting": "[19]", "result": "does not affect dopamine-stimulated production of CAMP"}, {"measurement": "Extrapyramidal effects", "setting": "[20]", "result": "without extrapyramidal effects"}, {"measurement": "Inhibition of specific binding of dextrorotatory tritiated SKF-10,047", "setting": "[21]", "result": "competitively inhibit the specific binding"}, {"measurement": "Acceleration of rate of dopamine synthesis", "setting": "[22]", "result": "does not accelerate the rate of dopamine synthesis"}]}
